According to ChEMBL document CHEMBL5321210, “N-adamantyl-anthranil amide derivatives: New selective ligands for the cannabinoid receptor subtype 2 (CB2R)” (Eur J Med Chem, 2023):
Calls of active or inactive are those of the source.

Tests used:
THP-1 [1] = assay: Antiinflammatory activity in LPS-activated PMA-differentiated human THP-1 macrophages assessed as decrease in IFN-gamma production at 1 to 10 uM incubated for 24 hrs in the presence of JTE907 by ELISA coupled qRT-PCR analysis; type: functional, cell-based; details: dose 1-10 µM
THP-1 [2] = assay: Antiinflammatory activity in human THP-1 monocytes assessed as increase in IL-4 production at 1 to 10 uM incubated for 24 hrs in the presence of JTE907 by ELISA coupled qRT-PCR analysis; type: functional, cell-based; details: dose 1-10 µM
THP-1 [3] = assay: Antiinflammatory activity against LPS-activated PMA-differentiated human THP-1 macrophages assessed as decrease in IFN-gamma production at 1 to 10 uM incubated for 24 hrs by ELISA coupled qRT-PCR analysis relative to control; type: functional; design: scale not given: the % may be the effect or the level left; details: dose 1-10 µM
THP-1 [4] = assay: Antiinflammatory activity against LPS-activated PMA-differentiated human THP-1 macrophages assessed as increase in IL-4 production at 1 to 10 uM incubated for 24 hrs by ELISA coupled qRT-PCR analysis; type: functional, cell-based; details: dose 1-10 µM
THP-1 [5] = assay: Antiinflammatory activity in human THP-1 monocytes assessed as decrease in IFN-gamma production at 1 to 10 uM incubated for 24 hrs in the presence of JTE907 by ELISA coupled qRT-PCR analysis; type: functional, cell-based; details: dose 1-10 µM
THP-1 [6] = assay: Antiinflammatory against LPS-activated human THP-1 monocytes assessed as decrease in TNF-alpha production at 1 to 10 uM incubated for 24 hrs in the presence of JTE907 by ELISA coupled qRT-PCR analysis; type: functional, cell-based; details: dose 1-10 µM
THP-1 [7] = assay: Antiinflammatory activity against LPS-activated PMA-differentiated human THP-1 macrophages assessed as decrease in TNF-alpha production at 1 to 10 uM incubated for 24 hrs by ELISA coupled qRT-PCR analysis relative to control; type: functional; design: scale not given: the % may be the effect or the level left; details: dose 1-10 µM
THP-1 [8] = assay: Antiinflammatory activity in human THP-1 monocytes assessed as decrease in IFN-gamma production incubated for 24 hrs by ELISA coupled qRT-PCR analysis; type: functional, cell-based; details: dose 1-10 µM
THP-1 [9] = assay: Antiinflammatory activity in human THP-1 monocytes assessed as decrease in TNF-alpha production incubated for 24 hrs by ELISA coupled qRT-PCR analysis; type: functional, cell-based; details: dose 1-10 µM
THP-1 [10] = assay: Antiinflammatory against LPS-activated human THP-1 monocytes assessed as increase in IL-10 production at 1 to 10 uM incubated for 24 hrs in the presence of JTE907 by ELISA coupled qRT-PCR analysis; type: functional, cell-based; details: dose 1-10 µM
THP-1 [11] = assay: Antiinflammatory against LPS-activated human THP-1 monocytes assessed as decrease in IL-6 production at 1 to 10 uM incubated for 24 hrs in the presence of JTE907 by ELISA coupled qRT-PCR analysis; type: functional, cell-based; details: dose 1-10 µM
THP-1 [12] = assay: Antiinflammatory activity in PMA-differentiated human THP-1 macrophages assessed as decrease in TNF-alpha production at 1 to 10 uM incubated for 24 hrs in the presence of JTE907 by ELISA coupled qRT-PCR analysis; type: functional, cell-based; details: dose 1-10 µM
THP-1 [13] = assay: Antiinflammatory activity in human THP-1 monocytes assessed as decrease in IL-6 production at 1 to 10 uM incubated for 24 hrs in the presence of JTE907 by ELISA coupled qRT-PCR analysis; type: functional, cell-based; details: dose 1-10 µM
Cannabinoid receptor 2 = Cannabinoid receptor 2 (Homo sapiens, UniProt P34972); assay: Agonist activity at human CB2 receptor expressed in CHO-K1 cells assessed as inhibition of NKH-477 induced cAMP production by measuring maximal efficacy incubated for 30 mins by luminescence based analysis relative to control; type: functional, cell-based; details: filed as agonist
Chain of Cannabinoid receptor 2 (P34972 whole entry): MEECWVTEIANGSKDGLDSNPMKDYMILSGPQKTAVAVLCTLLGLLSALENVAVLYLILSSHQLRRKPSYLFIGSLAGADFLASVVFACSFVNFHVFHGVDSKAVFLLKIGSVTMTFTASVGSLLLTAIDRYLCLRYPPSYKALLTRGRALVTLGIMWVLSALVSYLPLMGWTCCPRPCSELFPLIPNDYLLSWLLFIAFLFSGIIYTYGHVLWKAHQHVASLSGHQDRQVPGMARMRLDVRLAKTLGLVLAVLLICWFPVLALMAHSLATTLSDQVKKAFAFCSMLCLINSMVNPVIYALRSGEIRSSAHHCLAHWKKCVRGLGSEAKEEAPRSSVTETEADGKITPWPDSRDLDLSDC

THP-1 [14] = assay: Antiinflammatory activity in PMA-differentiated human THP-1 macrophages assessed as reduction in TNF-alpha production at 1 to 10 uM incubated for 24 hrs by ELISA coupled qRT-PCR analysis relative to control; type: functional; design: scale not given: the % may be the effect or the level left; details: dose 1-10 µM
THP-1 [15] = assay: Antiinflammatory against LPS-activated human THP-1 monocytes assessed as decrease in IFN-gamma production at 10 uM incubated for 24 hrs in the presence of JTE907 by ELISA coupled qRT-PCR analysis; type: functional, cell-based
THP-1 [16] = assay: Antiinflammatory against LPS-activated human THP-1 monocytes assessed as increase in IL-10 production at 10 uM incubated for 24 hrs in the presence of JTE907 by ELISA coupled qRT-PCR analysis; type: functional, cell-based
THP-1 [17] = assay: Antiinflammatory against LPS-activated human THP-1 monocytes assessed as increase in IL-4 production at 10 uM incubated for 24 hrs in the presence of JTE907 by ELISA coupled qRT-PCR analysis; type: functional, cell-based
THP-1 [18] = assay: Antiinflammatory activity in human THP-1 monocytes assessed as decrease in IFN-gamma production at 10 uM incubated for 24 hrs in the presence of N-(adamantan-1-yl)-4-(pentylamino)-[1,1'-biphenyl]-3-carboxamide by ELISA coupled qRT-PCR analysis; type: functional, cell-based
THP-1 [19] = assay: Antiinflammatory activity against LPS-activated PMA-differentiated human THP-1 monocytes assessed as increase in IL-4 production at 10 uM incubated for 24 hrs in the presence of N-(adamantan-1-yl)-4-(pentylamino)-[1,1'-biphenyl]-3-carboxamide by ELISA coupled qRT-PCR analysis; type: functional, cell-based
THP-1 [20] = assay: Antiinflammatory activity in PMA-differentiated human THP-1 macrophages assessed as reduction in IL-6 production at 10 uM incubated for 24 hrs by ELISA coupled qRT-PCR analysis relative to control; type: functional; design: scale not given: the % may be the effect or the level left
THP-1 [21] = assay: Antiinflammatory activity in human THP-1 monocytes assessed as increase in IL-4 production at 10 uM incubated for 24 hrs by ELISA coupled qRT-PCR analysis; type: functional, cell-based
THP-1 [22] = assay: Antiinflammatory activity in PMA-differentiated human THP-1 macrophages assessed as reduction in TNF-alpha production at 10 uM incubated for 24 hrs by ELISA coupled qRT-PCR analysis relative to control; type: functional; design: scale not given: the % may be the effect or the level left
THP-1 [23] = assay: Antiinflammatory activity in LPS-activated PMA-differentiated human THP-1 macrophages assessed as decrease in IL-1beta production at 10 uM incubated for 24 hrs in the presence of JTE907 by ELISA coupled qRT-PCR analysis; type: functional, cell-based
THP-1 [24] = assay: Antiinflammatory activity against LPS-activated PMA-differentiated human THP-1 monocytes assessed as increase in IL-10 production at 10 uM incubated for 24 hrs in the presence of N-(adamantan-1-yl)-4-(pentylamino)-[1,1'-biphenyl]-3-carboxamide by ELISA coupled qRT-PCR analysis; type: functional, cell-based
THP-1 [25] = assay: Antiinflammatory activity in PMA-differentiated human THP-1 macrophages assessed as decrease in TNF-alpha production at 10 uM incubated for 24 hrs in the presence of JTE907 by ELISA coupled qRT-PCR analysis; type: functional, cell-based
THP-1 [26] = assay: Antiinflammatory activity in PMA-differentiated human THP-1 macrophages assessed as increase in IL-10 production at 10 uM incubated for 24 hrs in the presence of JTE907 by ELISA coupled qRT-PCR analysis; type: functional, cell-based
THP-1 [27] = assay: Antiinflammatory activity against LPS-activated PMA-differentiated human THP-1 monocytes assessed as decrease in TNF-alpha production at 10 uM incubated for 24 hrs in the presence of N-(adamantan-1-yl)-4-(pentylamino)-[1,1'-biphenyl]-3-carboxamide by ELISA coupled qRT-PCR analysis; type: functional, cell-based

CCCCCNc1ccccc1C(=O)NC12CC3CC(CC(C3)C1)C2
inactive: Activity (THP-1 [1]) | Activity (THP-1 [2]) | Activity (THP-1 [5]) | Activity (THP-1 [6]) | Activity (THP-1 [10]) | Activity (THP-1 [11]) | Activity (THP-1 [12]) | Activity (THP-1 [13])
active: Activity (THP-1 [4]) | Activity (THP-1 [8]) Dose-Dependent Effect | Activity (THP-1 [9]) Dose-Dependent Effect
70%: Activity (THP-1 [3]) | Activity (THP-1 [7])
77.2%: Emax (Cannabinoid receptor 2)
50%: Activity (THP-1 [14])

O=C(NC1CCCCC1)c1cn(CCN2CCOCC2)c2cc(Cl)ccc2c1=O
inactive: Activity (THP-1 [15]) | Activity (THP-1 [16]) | Activity (THP-1 [17]) | Activity (THP-1 [18]) | Activity (THP-1 [19]) | Activity (THP-1 [23]) | Activity (THP-1 [24]) | Activity (THP-1 [25]) | Activity (THP-1 [26]) | Activity (THP-1 [27])
50%: Activity (THP-1 [20]) | Activity (THP-1 [22])
active: Activity (THP-1 [21])
